Where “and” joins values, the source holds several entries; their conditions need not be identical. Equal values may be shown once. Entries after “also recorded” stand apart in the source; their conditions may differ. Read-outs that look alike come from different tables or passages of the source.
Legend:
Format in all cases: cell-based
γ-secretase complex = γ-secretase complex (Homo sapiens, UniProt P49768); test: APP-C99 counter assay (GSI reporter assay); parameters: AUC APP: scale not given here; settings: for 3p-DR in % of DMSO counter: APP-C99 counter assay; for Hill-slope: bottom constrained to Emax of positive control LY-411575; for AUC APP: area under the 14-point dose-response curve, replicates averaged; for APP assay: overview in comparison to compound C, Supplemental Fig. 9; for AUC 9p APP-counter assay / AUC. 14p APP-counter assay: AUCs averaged when replicates available; for Bottom (Emax): Emax indicated independent from assay constraints
In short: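 Cells transfected with APP-C99 firefly luciferase reporter plus renilla normalization plasmid, seeded 24 h later onto compound plates and cultured 24 h. Dual luciferase read in triplicate per concentration; IC50 from variable-slope log(inhibitor) fit, with AUC also calculated from dose–response curves.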

Notch signalling [1] = test: Notch reporter assay (12xCSL firefly luciferase / renilla luciferase, HEK293T Notch1ΔE reporter cell line clone #A1-11); settings: 24 h, unit from Fig. 2 legend
Notch signalling [2] = test: as above; parameters: AUC Notch: scale not given here; Confirmation screen: unit not given here; settings: for inhibitor ratio in % of DMSO in 3 point DR: 3-point DR confirmation screen, Notch reporter assay; for Bottom (Emax): Emax indicated independent from assay constraints, in % (unit assumed); for AUC Notch: area under the 14-point dose-response curve; for reporter signal in % of DMSO: inhibitor controls, Supplemental Fig. 2A; for Notch assay: overview in comparison to compound C, Supplemental Fig. 9; for AUC 9p Notch reporter assay: 9p dose response; for AUC 9p Notch reporter assay / AUC 14p Notch reporter assay: AUCs averaged when replicates available; for 14p Notch reporter assay averaged IC50s (log): log10 of averaged IC50
In short: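 Compounds at two-fold concentration in 10 µl medium were brought to one-fold by adding 10 µl holding 4000 Notch reporter cells (clone #A1-11) per well of a 384-well plate. After 24 h, Promega dual-GLO firefly and renilla luciferase were read on a SpectraMaxi3. Dose-response curves were fitted with a log(inhibitor) vs. response variable-slope model.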

[3] = 10 µM, sheet conf vs counter 10 µM
[4] = 25 µM, sheet "conf vs counter 25 µM", same values given as % of DMSO in sheet "3p-DR in % of DMSO counter"
[5] = 10 µM, sheet conf vs counter 10 µM, same values as 3-point DR confirmation screen
[6] = 25 µM, Notch reporter 3-point dose-confirmation assay, sheet "conf vs counter 25 µM"
[7] = Homo sapiens, HEK-293T, 14-point dose-response, Fig. 4, read-out: approximated IC50, Notch reporter assay
[8] = 14-point, unit inferred, replicates averaged, read-out: approxiated IC50s 14p Notch reporter assay
[9] = 14p Notch assay DR, log10 value, Notch inhibitor controls, no bottom constraint named
[10] = 14p dose response, single replicates, read-out: approximated IC50s 14p Notch reporter assay

SMILES	3p-DR in % of DMSO counter (γ-secretase complex; 10µM)	Counter screen (Hek APP-C99) (γ-secretase complex; [3])	3p-DR in % of DMSO counter (γ-secretase complex; 25µM)	Counter screen (Hek APP-C99) (γ-secretase complex; [4])	3p-DR in % of DMSO counter (γ-secretase complex; 1,25µM)	Primary screen at 10 µM (Notch reporter signal) (Notch signalling [1])	inhibitor ratio in % of DMSO in 3 point DR (Notch signalling [2]; 10µM)	Confirmation screen (Notch signalling [2]; [5])	inhibitor ratio in % of DMSO in 3 point DR (Notch signalling [2]; 25µM)	Confirmation screen (Notch signalling [2]; [6])	inhibitor ratio in % of DMSO in 3 point DR (Notch signalling [2]; 1,25µM)	Hill-slope (γ-secretase complex; 14p APP assay DR)	AUC APP (γ-secretase complex)	Bottom (Emax) (Notch signalling [2]; 14p Notch assay DR)	AUC Notch (Notch signalling [2]; replicates averaged)	APP assay (γ-secretase complex)	Notch assay (Notch signalling [2])	also measured
CC(=O)Nc1cccc(-c2ccc(Nc3cccc(N(C)C)c3)nc2)c1 [CBK036829]	40.4 % of DMSO	40.4	38.9 % of DMSO	38.9	49.9 % of DMSO	22.4 % of DMSO	28.3 % of DMSO	28.3	23.9 % of DMSO	23.9	30.6 % of DMSO	–	–	–	–	–	–	–
FC(F)(F)CCN1CCC2(CC1)NCCc1c2[nH]c2ccc(Cl)cc12 [CBK039331]	111.0 % of DMSO	111.0	121.8 % of DMSO	121.7	81.3 % of DMSO	64.3 % of DMSO	79.3 % of DMSO	79.3	73.3 % of DMSO	73.3	98.4 % of DMSO	–	–	–	–	–	–	–
Fc1cc(CN2CCC3(CC2)OCCc2c3[nH]c3ccc(Br)cc23)cc(F)c1F [CBK039943]	118.1 % of DMSO	118.1	117.4 % of DMSO	117.4	92.8 % of DMSO	63.6 % of DMSO	83.6 % of DMSO	83.6	75.1 % of DMSO	75.1	111.8 % of DMSO	–	–	–	–	–	–	–
CCC(C)(C)c1ccc(S(=O)(=O)Nc2ccc3ncsc3c2)cc1 [CBK043490]	45.0 % of DMSO	45.0	59.5 % of DMSO	59.5	53.8 % of DMSO	46.9 % of DMSO	33.5 % of DMSO	33.5	42.6 % of DMSO	42.6	42.1 % of DMSO	–	–	–	–	–	–	–
CC(C)C(=O)Nc1sc2c(c1C(=O)NCc1cccnc1)CCC2 [CBK306144]	–	–	–	–	–	–	–	–	–	–	–	-0.0106	480.2	~ 92,84	357.0	–	–	approximated IC50, Notch reporter assay (Notch signalling [2]; 14-point dose-response, Fig. 4): Indeterminate
CCc1c(C)sc(NC(=O)C2CCC2)c1C(=O)NCc1cccnc1 [CBK307414]	–	–	–	–	–	–	–	–	–	–	–	0.0127	416.6	–	311.0	–	–	IC50 (Notch signalling [2]; [7]): 7500 nM; IC50 (Notch signalling [2]; Homo sapiens, HEK-293T, 14p Notch assay DR, bottom constrained to Emax of positive control RO4929097, read-out: approximated IC50): 7400 nM; IC50 (Notch signalling [2]; Homo sapiens, HEK-293T, 14p Notch assay DR, log10 value, bottom constrained to Emax of positive control RO4929097, read-out: approximated LogIC50 (converted)): 7940 nM
CCOC(=O)c1c(NC(=O)NCc2cccnc2)sc2c1CCC2 [CBK307585]	–	–	–	–	–	–	–	–	–	–	–	-0.6	444.5	71.6	338.0	–	–	IC50 (Notch signalling [2]; [7]): 6600 nM
Cc1cc(C)c2[nH]c(C(=O)N[C@H](c3ccccc3)c3ccnn3C)c(C)c2c1 [CBK315984]	–	–	–	–	–	–	–	–	–	–	–	-1.0	698.8	96.7	607.0	–	–	approximated IC50, Notch reporter assay (Notch signalling [2]; 14-point dose-response, Fig. 4): Indeterminate
NC(=O)c1c(NC(=O)NC2CCCCC2)sc2c1CCCC2 [CBK431895]	–	–	–	–	–	–	–	–	–	–	–	-0.00462	411.0	87.8	341.0	–	–	IC50 (Notch signalling [2]; [7]): 33500 nM
CC1=C(C(=O)OC2CCCCC2)C(c2ccc([N+](=O)[O-])cc2)C2=C(CC(C)(C)CC2=O)N1 (stereo not shown) [FLI-06, reference compound]	–	–	–	–	–	–	–	–	–	–	–	–	–	–	–	active, potency n.d.	active, potency n.d.	reporter signal in % of DMSO (Notch signalling [2]; 10 µM): 62%
C[C@H](NC(=O)[C@@H](O)c1cc(F)cc(F)c1)C(=O)N[C@@H]1C(=O)N(C)c2ccccc2-c2ccccc21 [LY-411575, reference compound]	–	–	–	–	–	–	–	–	–	–	–	–	428.9	46.0 and 46.9	373.0	highest potency	highest potency; also recorded: highest activity	Hill-Slope 9p APP counter assay averaged (γ-secretase complex; 9p dose response): -1.0; AUC 9p APP-counter assay (γ-secretase complex; 9p dose response): 1.95E+02; Bottom (Emax) (γ-secretase complex; 14p APP assay DR): 44.6 and 46.0; AUC. 14p APP-counter assay (γ-secretase complex; 14p dose response): 4.29E+02; reporter signal in % of DMSO (Notch signalling [2]; 10 µM): 46%; AUC 9p Notch reporter assay (Notch signalling [2]): 1.91E+02; IC50 (Notch signalling [2]; [8]): 0.88 nM; Hill-slope (Notch signalling [2]; 14p Notch assay DR, Notch inhibitor controls, no bottom constraint named): -1.3; approximated LogIC50 [M] (Notch signalling [2]; [9]): -9.0 M; Hill-Slope 14p Notch reporter assay (Notch signalling [2]; 14p dose response): -1.3; IC50 (Notch signalling [2]; [10]): 0.86 nM and 0.9 nM; AUC 14p Notch reporter assay (Notch signalling [2]; 14p dose response): 3.73E+02; 14p Notch reporter assay averaged IC50s (log) (Notch signalling [2]; 14p dose response): -9.1
CC(C)[C@H](O)C(=O)N[C@@H](C)C(=O)N[C@@H]1C(=O)N(C)CCc2ccccc21 [LY-450139, Semagacestat, reference compound]	–	–	–	–	–	–	–	–	–	–	–	–	–	–	–	active, potency n.d.	active, potency n.d.	reporter signal in % of DMSO (Notch signalling [2]; 10 µM): 52%
C[C@H](NC(=O)Cc1cc(F)cc(F)c1)C(=O)N[C@@H]1C(=O)N(C)c2ccccc2-c2ccccc21 [YO-01027, reference compound]	–	–	–	–	–	–	–	–	–	–	–	–	461.6	43.4 and 46.0	383.0	higher potency	higher potency	Hill-Slope 9p APP counter assay averaged (γ-secretase complex; 9p dose response): -1.7; AUC 9p APP-counter assay (γ-secretase complex; 9p dose response): 2.30E+02; IC50 (γ-secretase complex; 9p dose response, averaged, read-out: 9p APP counter assay averaged IC50s): 17 nM; IC50 (γ-secretase complex; 9p dose response, read-out: approximated IC50s 9p APP counter assay): 17 nM; IC50 (γ-secretase complex; 14-point, unit inferred, some fits outside of tested concentration range, read-out: approximated IC50s 14p APP-counter assay): 21 nM; Bottom (Emax) (γ-secretase complex; 14p APP assay DR): 40.6 and 48.3; IC50 (γ-secretase complex; 14p APP assay DR, Notch inhibitor controls, no bottom constraint named, read-out: approximated IC50): 16 nM and 27 nM; approximated LogIC50 [M] (γ-secretase complex; 14p APP assay DR, log10 value, Notch inhibitor controls, no bottom constraint named): -7.8 M and -7.6 M; AUC. 14p APP-counter assay (γ-secretase complex; 14p dose response): 4.62E+02; 14p APP counter assay averaged IC50s (log) (γ-secretase complex; 14p dose response, log10 of averaged IC50): -7.7; AUC 9p Notch reporter assay (Notch signalling [2]): 1.99E+02; IC50 (Notch signalling [2]; [8]): 1.7 nM; approximated LogIC50 [M] (Notch signalling [2]; [9]): -8.7 M; IC50 (Notch signalling [2]; [10]): 2 nM and 1.5 nM; AUC 14p Notch reporter assay (Notch signalling [2]; 14p dose response): 3.83E+02; 14p Notch reporter assay averaged IC50s (log) (Notch signalling [2]; 14p dose response): -8.8
